Measurements reported in article PMC11053983, “Beyond One-Size-Fits-All: Tailoring Teicoplanin Regimens for Normal Renal Function Patients Using Population Pharmacokinetics and Monte Carlo Simulation” (Pharmaceutics, 2024).

Tests used:
[1] = Single 200 mg IV infusion (30 min) PK in 12 healthy adults, noncompartmental analysis; assay type: in vivo, human; settings: n = 12; for Cmax: plasma, HPLC-MS/MS
Experimental: (§1) A 200 mg dose of teicoplanin in 100 mL of normal saline was administered intravenously to subjects over 30 min. Venous blood samples (6 mL each) were collected into heparinized tubes at 33, 36, 45, and 90 min, and 4, 8, 48–120, and 168–240 h after starting the infusion. Eight sampling points were used per subject to analyze PK parameters via noncompartmental and population PK methods.
(§2) Plasma levels of teicoplanin were quantified using tandem mass spectrometry coupled with HPLC (HPLC-MS/MS). The analytical system utilized included an LC-40 HPLC unit from Shimadzu Co. (Kyoto, Japan) paired with a Gemini C18 analytical column from Phenomenex (Torrance, CA, USA). A SCIEX 4500 QTRAP mass spectrometer (Sciex, Redwood City, CA, USA) facilitated the MS-based detection. Calibration standards were prepared by combining 100 μL of a reference solution with 10 μL of a vancomycin internal standard (concentration of 100 μg/mL) in microcentrifuge tubes. To this mixture, 400 μL of acetonitrile was added to precipitate proteins, followed by vortex mixing for 60 s. Following centrifugation at 12,000 rpm for 2 min at 4 °C, the clear supernatant was diluted 10-fold with deionized water. A 10 μL sample of this solution was then introduced into the HPLC-MS/MS for analysis. In a parallel procedure for plasma samples, after the addition of the vancomycin internal standard and acetonitrile-induced protein precipitation, the sample was processed like that of the calibration standard preparation before HPLC-MS/MS analysis. The teicoplanin concentration in the plasma was determined by comparing the peak area ratio of teicoplanin to the internal standard and employed a batch-specific calibration curve equation, adjusted for 1/x^2 weighting.
A noncompartmental analysis (NCA) was completed to evaluate the plasma concentration–time profiles of teicoplanin using the R programming language and the NonCompart package. The following PK parameters were assessed: maximum observed plasma concentration (Cmax), time of last measurable concentration (Tlast), concentration corresponding to Tlast (Clast), area under the plasma concentration–time curve (AUC) from the start of dosing to the last quantifiable concentration (AUClast), AUC from the start of dosing to infinity (AUCinf), area under the first moment curve (AUMC) from 0 h to the Tlast (AUMClast), AUMC extrapolated to infinity, based on the last observed concentration (AUMCinf), mean residence time from 0 h to infinite (MRTinf), total body clearance as determined through NCA (CLNCA), volume of distribution (Vd) determined via NCA (VzNCA), steady-state Vd determined via NCA (VssNCA), and terminal elimination half-life (t1/2λz). Cmax, Tlast, and Clast were determined directly from the observed data. AUClast and AUMClast were calculated employing the linear-up and log-down trapezoidal method. AUCinf was estimated by adding Clast/λz to AUClast, where λz is the terminal elimination rate constant, which was determined by log-linear regression of the terminal phase plasma concentrations. AUMCinf was calculated using the following formula: AUMClast + (Tlast × Clast)/λz + Clast/λz^2, MRTinf as AUMCinf/AUCinf—infusion time/2, CLNCA as dose/AUCinf, VzNCA as CLNCA/λz, VssNCA as MRTinf × CLNCA, and t1/2λz as ln(2)/λz.

[2] = 12 mg/kg every 12 h x4, then 12 mg/kg daily; median CLCR 113 mL/min; cited from earlier work
[3] = Population PK analysis (NONMEM, three-compartment model), 12 healthy adults, 200 mg IV; assay type: in vivo; settings: for CL, total clearance / AUC (dose/CL) / VC, central volume of distribution / Vss, steady-state volume of distribution: individual parameters; for CL, total clearance: n = 12; for 1st t1/2 / 2nd t1/2 / 3rd t1/2: three-compartment model
Experimental: as §1, §2
The PK analysis of teicoplanin was completed using a nonlinear mixed-effects modeling technique with NONMEM software (version 7.5, ICON Clinical Research LLC, North Wales, PA, USA). Parameter estimation for both the observed and the unaccounted-for random effects was achieved by applying the First-Order Conditional Estimation with Interaction approach. This method facilitates the consideration of interactions between the unexplained interindividual variability (IIV) of PK parameters and the residual unexplained variability in the observed concentrations. To model the PK profiles of teicoplanin, we used one-compartment (ADVAN1 TRANS2), two-compartment (ADVAN3 TRANS4), and three-compartment (ADVAN11 TRANS4) models which were based on first-order kinetics, with the exception of zero-order infusion processes.
Model selection and evaluation were based on several criteria: NONMEM’s objective function values (OFVs), parameter estimate precision (reflected by relative standard errors), IIV shrinkage, diagnostic fit plots, visual predictive checks, and bootstrap analysis. For nested model comparisons, a decrease in OFV (ΔOFV) exceeding 3.84 (for a χ^2 distribution with one degree of freedom, df) or 5.99 (for a χ^2 distribution with two df) indicated meaningful improvements at a significance level of p < 0.05. The diagnostic plots for model assessment include conditional weighted residuals (CWRES) against time and population predictions (PRED), as well as actual observations compared with both PRED and individual predictions. Visual predictive checks (VPC) were conducted by matching the observed concentrations to the 80% prediction intervals from 1000 simulations based on the final PK model. The variability in the final predictions was determined by calculating the median and 95% confidence intervals for the PK parameters from 2000 bootstrap samples.
Significant covariates affecting PK parameters were determined using stepwise selection, with inclusion at p < 0.01 (ΔOFV < −6.635) and exclusion at p < 0.001 (ΔOFV > 10.83) for one df. Covariates had to show statistical and clinical relevance. […]

[4] = human, in vivo; cited from earlier work
Excerpt: Teicoplanin, along with the glycopeptide antibiotic vancomycin, has an important role in the treatment of Gram-positive bacterial infections, including those caused by methicillin-resistant Staphylococcus aureus (MRSA). […] Based on the European Medicines Agency’s summary of the product characteristics (SmPC) for teicoplanin, adults and the elderly with normal renal function have recommended specific do ...

[5] = human, in vivo; cited from earlier work; remark: listed apart in the source
Experimental: In the second simulation, the PTA was determined for different LD and MD regimens to satisfy both criteria: a Ctrough greater than 20 mg/L and an AUC/MIC ratio of at least 800. Adopting a similar approach to the first simulation, we used two distinct LD and MD combinations. The proportion of patients achieving both therapeutic targets was continuously assessed from days 3 to 7 following the initiation of treatment.

[6] = cited from earlier work
Excerpt: In the present study, the PK profile of teicoplanin in healthy adults was characterized using a three-compartment model. Typically, in studies with sparse sampling designs, the PK profile of teicoplanin is often delineated using one- [15, 16] or two-compartment models; however, previous studies using dense sampling approaches have also applied a three-compartment model. Such models are characterized by three distinct slopes when plotted on a graph with the y-axis representing a logarithmic scale, corresponding to the composition of three exponential equations ...

[7] = in vivo; cited from earlier work
Excerpt: This study had several limitations. First, a small sample size of 12 subjects was insufficient to detect a variety of meaningful covariates, although eGFR and body weight were identified as significant factors. Thus, future studies with larger patient cohorts will be needed to develop more robust models. […] This decision, aimed at enhancing model stability and interpretability, involved employing the FOCE-I method and facing challenges with other estimation methods due to our ...

teicoplanin
t1/2λz, terminal elimination half-life ([1]; last 3 or 4 points, mean (CV%)): 54.6 (13.2%) h | AUCinf ([1]; mean (CV%)): 307 (15.4%) mg/L·h | AUClast ([1]; mean (CV%)): 273 (16.6%) mg/L·h | AUMCinf ([1]; mean (CV%)): 22,700 (14.8%) mg/L·h^2 | AUMClast ([1]; mean (CV%)): 13,800 (16.0%) mg/L·h^2 | CLNCA ([1]; mean (CV%)): 0.0105 (15.2%) L/h/kg | Clast ([1]; mean (CV%)): 0.431 (24.9%) mg/L | MRTinf ([1]; mean (CV%)): 74.0 (12.8%) h | VssNCA ([1]; mean (CV%)): 0.776 (19.6%) L/kg | AUCinf ([1]; median (IQR)): 305 (279–332) mg/L·h | AUClast ([1]; median (IQR)): 270 (247–302) mg/L·h | AUMCinf ([1]; median (IQR)): 22,300 (20,200–23,200) mg/L·h^2 | AUMClast ([1]; median (IQR)): 13,800 (12,300–15,000) mg/L·h^2 | CLNCA ([1]; median (IQR)): 0.0103 (0.00896–0.0117) L/h/kg | Clast ([1]; median (IQR)): 0.422 (0.348–0.470) mg/L | MRTinf ([1]; median (IQR)): 76.7 (68.0–80.7) h | Tlast ([1]; median (IQR)): 192 (169–194) h | VssNCA ([1]; median (IQR)): 0.734 (0.661–0.859) L/kg | t1/2λz, terminal elimination half-life ([1]; median (IQR)): 55.0 (51.9–58.6) h | Cmax ([1]; mean (CV%)): 32.1 (12.9%) mg/L | Cmax ([1]; median (IQR)): 30.9 (29.5–35.6) mg/L | steady-state Ctrough, median (range) [2]: 15.9 (8.8–29.9) mg/L | Q2, bootstrap median (95% CI) ([3]; 2000 bootstrap samples): 4.45 (3.63–5.86) L/h | Q3, bootstrap median (95% CI) ([3]; 2000 bootstrap samples): 1.75 (1.44–2.13) L/h | V1, bootstrap median (95% CI) ([3]; 2000 bootstrap samples): 3.97 (3.15–4.62) L | V2, bootstrap median (95% CI) ([3]; 2000 bootstrap samples): 8.33 (7.07–9.85) L | θ1 (CL), bootstrap median (95% CI) ([3]; 2000 bootstrap samples): 0.693 (0.653–0.74) L/h | θ2, bootstrap median (95% CI) ([3]; 2000 bootstrap samples): 0.789 (0.422–1.16) | θ7 (V3), bootstrap median (95% CI) ([3]; 2000 bootstrap samples): 69.7 (55.8–82.6) L | θ8, bootstrap median (95% CI) ([3]; 2000 bootstrap samples): 1.73 (0.67–2.44) | CL typical value θ1, CL = θ1 × (CE/105.27)^θ2, estimate ([3]; final model estimate): 0.693 L/h | Q2 = θ4, intercompartmental clearance V1-V2, estimate ([3]; final model estimate): 4.45 L/h | Q3 = θ6, intercompartmental clearance V1-V3, estimate ([3]; final model estimate): 1.76 L/h | V1 = θ3, central volume of distribution, estimate ([3]; final model estimate): 3.96 L | V2 = θ5, first peripheral volume, estimate ([3]; final model estimate): 8.24 L | θ7, V3 = θ7 × (WT/67.85)^θ8, second peripheral volume, estimate ([3]; final model estimate): 69.8 L | θ8, exponent of weight on V3, estimate ([3]; final model estimate): 1.73 | VSS typical value (V1 + V2 + V3) ([3]; healthy subjects): 82.0 L | CL, total clearance ([3]; mean (CV%)): 0.0107 (14.0%) L/h/kg | CL, total clearance ([3]; median (IQR)): 0.0104 (0.00961–0.0122) L/h/kg | AUC (dose/CL) ([3]; mean (CV%)): 299 (16.0%) mg/L·h | VC, central volume of distribution ([3]; mean (CV%)): 0.0644 (28.9%) L/kg | Vss, steady-state volume of distribution ([3]; mean (CV%)): 1.21 (23.0%) L/kg | AUC (dose/CL) ([3]; median (IQR)): 300 (263–316) mg/L·h | VC, central volume of distribution ([3]; median (IQR)): 0.0649 (0.0526–0.0733) L/kg | Vss, steady-state volume of distribution ([3]; median (IQR)): 1.24 (1.06–1.34) L/kg | 1st t1/2 ([3]; mean (CV%)): 0.345 (36.3%) h | 2nd t1/2 ([3]; mean (CV%)): 4.12 (22.2%) h | 3rd t1/2 ([3]; mean (CV%)): 103 (29.9%) h | 1st t1/2 ([3]; median (IQR)): 0.317 (0.289–0.417) h | 2nd t1/2 ([3]; median (IQR)): 4.23 (3.78–4.83) h | 3rd t1/2 ([3]; median (IQR)): 97.9 (83.1–116) h | elimination half-life [4]: 83 to 182 h | patients achieving AUC ≥800 mg/L·h [5]: 100% | V1 [6]: 4.32 L | V2 [6]: 8.35 L | V3 [6]: 68.6 L | VSS [6]: 81.3 L | CL ([6]; mean 64 years, 69.1 kg, CLCR 72 mL/min): 0.490 L/h | linear PK range [7]: 2 to 25 mg/kg
